The values that follow come from US20240050441A1, “COMBINATION THERAPIES FOR THE TREATMENT OF CANCER” (Erasca, Inc., priority 2020, published 2024).

What all share (type): cell-based
One test deals with ERK1/2 phosphorylation. The test can be described thus: Western blotting of phosphorylated ERK1/2 in CAL 27 cells. Particulars: HPV-negative CAL 27 cells; 4 hours of treatment; immunoblot, bands normalized by total ERK. How it is done: The cell lines used in the study were obtained from ATCC (CAL 27 #CRL-2095, SCC-15 #CRL-1623, SCC-25 #CRL-1628, SCC-4 #CRL-1624 and SCC-9 #CRL-1629). The cell line, CAL 27 was cultured in DMEM (Gib co #). SCC-4, SCC-15, SCC-25, SCC-9 cell lines was cultured in a 1:1 mixture of DMEM and Ham's F12 medium containing 1.2 g/L sodium bicarbonate, 2.5 mM L-glutamine, 15 mM HEPES and 0.5 mM sodium pyruvate supplemented with 400 ng/ml hydrocortisone, 90%; fetal bovine serum, 10% (Hyclone #SH-30071.03) and Penicillin/Streptomycin (Thermo Fisher #15070-063). The cells were maintained at 37° C./5% CO2. Cells were washed in ice cold PBS (Thermo Fisher Scientific #10010-023) and lysed in RIPA Lysis and Extraction Buffer (Thermo Fisher Scientific #89900) supplemented with Halt Phosphatase and Protease Inhibitor (Thermo Fisher Scientific #78445). […]
Western blotting: Cells were lysed on ice for 10 minutes with Thermo Fisher RIPA lysis buffer with protease and phosphatase inhibitors. […] The supernatant was transferred to pre-chilled microcentrifuge tube and protein concentration of the lysate was measured using BCA method. […]
After 4 hours of treatment, cells were lysed and immunoblotted for phosphorylated ERK1/2. […] The phosphorylated ERK1/2 bands were quantified by using Bio-Rad Image Lab software and normalized by total ERK.

For another test, the system named is SCC-15 cells. Description: Cellular proliferation assay (CellTiter-Glo, day 5). The following applies: Homo sapiens, read-out: The compound of Formula I IC50, compound of Formula I alone. How it is done:
(§1) The cell lines used in the study were obtained from ATCC (CAL 27 #CRL-2095, SCC-15 #CRL-1623, SCC-25 #CRL-1628, SCC-4 #CRL-1624 and SCC-9 #CRL-1629). The cell line, CAL 27 was cultured in DMEM (Gib co #). SCC-4, SCC-15, SCC-25, SCC-9 cell lines was cultured in a 1:1 mixture of DMEM and Ham's F12 medium containing 1.2 g/L sodium bicarbonate, 2.5 mM L-glutamine, 15 mM HEPES and 0.5 mM sodium pyruvate supplemented with 400 ng/ml hydrocortisone, 90%; fetal bovine serum, 10% (Hyclone #SH-30071.03) and Penicillin/Streptomycin (Thermo Fisher #15070-063). The cells were maintained at 37° C./5% CO2. Cells were washed in ice cold PBS (Thermo Fisher Scientific #10010-023) and lysed in RIPA Lysis and Extraction Buffer (Thermo Fisher Scientific #89900) supplemented with Halt Phosphatase and Protease Inhibitor (Thermo Fisher Scientific #78445). The membrane was blocked for non-specific proteins by Bovine Serum Albumin BSA (Cell Signaling Tech #9998). Antibodies for immunoblotting were as follows: phospho-p44/42 ERK1/2 (Cell Signaling Tech #4370), ERK2 antibody (Santa Cruz #sc-1647), anti-mouse IgG HRP-linked antibody (Cell Signaling Tech #7076), and anti-rabbit IgG HRP-linked antibody (Cell Signaling Tech #7074).
(§2) […] HPV-negative head and neck squamous cancer cell lines, CAL 27, SCC-4, SCC-9, SCC-15 and SCC-25 were split onto 96 well plates.
A general note: ATP-based viability assays read luminescence as a measure of living cells.

The next test concerns SCC-25 cells. The description is as above. Particulars: read-out: The compound of Formula I IC50, compound of Formula I alone. As for the experimental part:
as §1, §2

For a further test, the system named is CAL 27 cells. The test is described as above. The following applies: Homo sapiens, read-out: The compound of Formula I IC50, compound of Formula I alone. As for the experimental part: as §1, §2
The next test concerns SCC-9 cells. Described as above. The following applies: Homo sapiens, read-out: The compound of Formula I IC50, compound of Formula I alone. How it is done:
as §1, §2

What is called IC50 is the concentration that gives 50% inhibition.

SMILES strings stand for the structures. Entries after “also recorded” stand apart in the source; their conditions may differ.

For `COCOC[C@H]1C[C@H]2COc3c(Sc4cnc(N5CCC6(CC5)CO[C@@H](C)[C@H]6N)c(CO)n4)ccnc3N2C1` [The compound of Formula I], in the test on ERK1/2 phosphorylation, the “inhibition of ERK1/2 phosphorylation relative to DMSO treated control cells” value was “approximately 50%; also recorded: about 50%”. Moreover, the IC50 was found to be 1410 nM with SCC-15 cells, 8050 nM with SCC-25 cells, 112 nM in the test with CAL 27 cells and 161 nM in the test with SCC-9 cells.
